In publication PMC4544722 (Drug Design, Development and Therapy, 2015):

Experiment: everted gut sac model in vitro
Details: jejunum, ECH 0.09 mg/mL; verapamil 0.2 mg/mL, borneol 0.1 mg/mL, pennyroyal 0.1 mL/mL, clove oil 0.1 mL/mL

With `CC1(C)C2CCC1(C)C(O)C2` (stereo not shown) [borneol] the “effect on ECH absorption parameters F and Papp versus control” value was “neither borneol nor pennyroyal had significant absorption enhancing effect”.
